Data set [1] in a line: Sweetness threshold values determined by a limit method by a panel of 5 skilled flavorists. The format is in vivo. As to conditions: for Taste intensity Threshold Values (%): dissolved in water, limit method, panel of 5 skilled flavorists; for Degree of Sweetness (time): relative to sucrose = 1.
The conditions of data set [2]: at 80°C and at a pH of 4; cited from earlier work.

Residues, ends and D or L forms follow the SMILES beside them.

As to `OC[C@H]1O[C@@](CO)(O[C@H]2O[C@H](CO)[C@@H](O)[C@H](O)[C@H]2O)[C@@H](O)[C@@H]1O` [Sucrose, sucrose], in data set [1], the “Taste intensity Threshold Values (%)” value came to 0.6%.

For the compound `COC(=O)[C@H](Cc1ccccc1)NC(=O)[C@@H](N)CC(=O)O` [APM, L-aspartyl-L-phenylalanine methyl ester] (H-Asp-Phe-OMe), in data set [1], the “Taste intensity Threshold Values (%)” value was determined as 0.004% and the “Degree of Sweetness (time)” value is reported as 150 time.

In the case of “3-N-(L-aspartyl)amino-4-fenchyl-2-butanol [Compound B]”, in data set [1], the “Taste intensity Threshold Values (%)” value is listed as 0.0012% and the “Degree of Sweetness (time)” value came out at 500 time.

“3-N-(L-aspartyl)amino-1-fenchyl-2-butanol [Compound A]”: in data set [1], the “Taste intensity Threshold Values (%)” value amounted to 0.001% and the “Degree of Sweetness (time)” value is 600 time.

Regarding `COC(=O)C(NC(=O)[C@@H](N)CC(=O)O)C(=O)OC1C2(C)CCC(C2)C1(C)C` (mixture of isomers) [L-aspartyl-DL-aminomalonic acid methyl fenchyl diester], in data set [2], the stability entry is reported as “lower than APM”.

(Values after patent publication EP0255343A2, “L-aspartylfenchylamino alcohol derivatives” (priority 1986, dated 1988).)
